Assay type in all cases: functional
Experiment [1] relates to Staphylococcus aureus. The experiment in a line: Antibacterial activity against […] Staphylococcus aureus ATCC 29213 by broth microdilution method. On the technique in general: In broth dilution the organism is exposed to a series of concentrations in liquid medium.
In experiment [2] the test system is Staphylococcus aureus. Kind of experiment: Antibacterial activity against linezolid-resistant Staphylococcus aureus 01A1220 by broth microdilution method.
In experiment [3] the test system is Staphylococcus aureus. Kind of experiment: Antibacterial activity against linezolid-resistant Staphylococcus aureus 01A1221 by broth microdilution method.
The test system of experiment [4] is Enterococcus faecalis. Kind of experiment: Antibacterial activity against […] Enterococcus faecalis ATCC 29212 by broth microdilution method.
Experiment [5] concerns Enterococcus faecalis. The experiment in a line: Antibacterial activity against linezolid-resistant Enterococcus faecalis 03A1128 by broth microdilution method.
Experiment [6] relates to Enterococcus faecium. The experiment in a line: Antibacterial activity against linezolid-resistant Enterococcus faecium 03B1073 by broth microdilution method.
In experiment [7] the test system is Enterococcus faecium. The experiment in a line: Antibacterial activity against linezolid-resistant Enterococcus faecium 03B1077 by broth microdilution method.
In experiment [8] the test system is Enterococcus faecium. The experiment in a line: Antibacterial activity against linezolid-resistant Enterococcus faecium 03B1074 by broth microdilution method.
The test system of experiment [9] is Enterococcus faecium. The experiment in a line: Antibacterial activity against linezolid-resistant Enterococcus faecium 03B1075 by broth microdilution method.
Experiment [10] relates to Enterococcus faecium. The experiment in a line: Antibacterial activity against linezolid-resistant Enterococcus faecium 03B1078 by broth microdilution method.
Experiment [11] deals with Enterococcus faecium. Kind of experiment: Antibacterial activity against linezolid-resistant Enterococcus faecium 03B1076 by broth microdilution method.

Converted amounts (≈) assume the structure as drawn.

For the compound `O=C(N[C@H](CO)[C@H](O)c1ccc([N+](=O)[O-])cc1)C(Cl)Cl` [CHLORAMPHENICOL], the MIC in experiment [1] is 8 µg/mL (≈ 24.8 µM); in experiment [2], above 32 µg/mL; in [3], 32 µg/mL (≈ 99 µM); in experiment [4] it was 8 µg/mL (≈ 24.8 µM); in experiment [5] it was above 32 µg/mL; in experiment [6], 8 µg/mL (≈ 24.8 µM). Moreover, the MIC was found to be 8 µg/mL (≈ 24.8 µM) in [7]; 32 µg/mL (≈ 99 µM) in [8]; 32 µg/mL (≈ 99 µM) in experiment [9]; 16 µg/mL (≈ 49.5 µM) in [10]; 32 µg/mL (≈ 99 µM) in experiment [11].

The MIC is the lowest concentration found to suppress growth. A high value points to a less susceptible organism.

The record behind these values is ChEMBL document CHEMBL1255373, “In vitro antibacterial activity of CE-156811, a novel analog derived from hygromycin A” (2008).
